Source: the supplement of paper PMC4862054

Key:
Settings in all cases: incubation time: 72 h
BT-474 [1] = experiment: normalised response (% of control), CellTiter-Glo; higher = more viable cells (100 = DMSO, 0 = benzethonium chloride kill control)
Procedure: (§1)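 DSRT, 72 h incubation, CellTox Green / CellTiter-Glo readout. Signal is normalised to DMSO and benzethonium chloride controls. Value is the normalised response at the highest dose.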

CAL-148 [2] = experiment: as above
Procedure: as §1

CAL-85-1 [3] = experiment: as above
Procedure: as §1

DU-4475 [4] = experiment: as above
Procedure: as §1

MDA-MB-436 [5] = experiment: as above
Procedure: as §1

MDA-MB-468 [6] = experiment: as above
Procedure: as §1

SK-BR-3 = experiment: as above
Procedure: as §1

BT-474 [7] = experiment: normalised viability (% of control), CellTiter-Blue; higher = more viable cells (about 100 = DMSO control)
Method in brief: (§2)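 After 72 h on compound-loaded 384-well plates, breast cancer cell lines received 2.5 µl CellTiter-Blue reagent for 2 h at 37 °C. Fluorescence at 560/590 nm was scaled per plate so that vehicle was 100 and a positive kill control was 0. The value stands for normalised viability at a single listed concentration of the series.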

BT-549 = experiment: as above
Method in brief: as §2

CAL-148 [8] = experiment: as above
Method in brief: as §2

CAL-51 = experiment: as above
Method in brief: as §2

CAL-85-1 [9] = experiment: as above
Method in brief: as §2

DU-4475 [10] = experiment: as above
Method in brief: as §2

HCC1143 = experiment: as above
Method in brief: as §2

HCC1937 = experiment: as above
Method in brief: as §2

HDQ-P1 = experiment: as above
Method in brief: as §2

Hs578T = experiment: as above
Method in brief: as §2

MDA-MB-231 = experiment: as above
Method in brief: as §2

MDA-MB-436 [11] = experiment: as above
Method in brief: as §2

MDA-MB-453 = experiment: as above
Method in brief: as §2

MDA-MB-468 [12] = experiment: as above
Method in brief: as §2

MFM-223 = experiment: as above
Method in brief: as §2

## Cc1ccc(F)c(NC(=O)Nc2ccc(-c3cccc4[nH]nc(N)c34)cc2)c1 [Linifanib] (1000 nM)
BT-474 [1]
  normalised response: 101%
CAL-148 [2]
  normalised response: 118%
CAL-85-1 [3]
  normalised response: 101%
DU-4475 [4]
  normalised response: 106%
MDA-MB-436 [5]
  normalised response: 111%
MDA-MB-468 [6]
  normalised response: 108%
SK-BR-3
  normalised response: 108%

## Clc1ccc(C(c2ccccc2Cl)C(Cl)Cl)cc1 (configuration not stated) [Mitotane]
BT-474 [7]; 10 nM
  normalised viability: 118%
BT-474 [7]; 1000 nM
  normalised viability: 108%
BT-474 [7]; 10000 nM
  normalised viability: 130%
BT-549; 10 nM
  normalised viability: 83%
BT-549; 1000 nM
  normalised viability: 93%
BT-549; 10000 nM
  normalised viability: 102%
CAL-148 [8]; 3 nM
  normalised viability: 89.2%
CAL-148 [8]; 30 nM
  normalised viability: 94.2%
CAL-148 [8]; 100 nM
  normalised viability: 95.7%
CAL-51; 3 nM
  normalised viability: 117%
CAL-51; 30 nM
  normalised viability: 106%
CAL-51; 100 nM
  normalised viability: 107%
CAL-85-1 [9]; 3 nM
  normalised viability: 92.6%
CAL-85-1 [9]; 30 nM
  normalised viability: 86.2%
CAL-85-1 [9]; 100 nM
  normalised viability: 101%
DU-4475 [10]; 3 nM
  normalised viability: 109%
DU-4475 [10]; 30 nM
  normalised viability: 87.5%
DU-4475 [10]; 100 nM
  normalised viability: 93.9%
HCC1143; 10 nM
  normalised viability: 82.9%
HCC1143; 1000 nM
  normalised viability: 81.2%
HCC1143; 10000 nM
  normalised viability: 91.4%
HCC1937; 10 nM
  normalised viability: 79.9%
HCC1937; 1000 nM
  normalised viability: 91.1%
HCC1937; 10000 nM
  normalised viability: 79.4%
HDQ-P1; 3 nM
  normalised viability: 117%
HDQ-P1; 30 nM
  normalised viability: 102%
HDQ-P1; 100 nM
  normalised viability: 100%
Hs578T; 10 nM
  normalised viability: 96.6%
Hs578T; 1000 nM
  normalised viability: 86.7%
Hs578T; 10000 nM
  normalised viability: 107%
MDA-MB-231; 10 nM
  normalised viability: 85.4%
MDA-MB-231; 1000 nM
  normalised viability: 94.8%
MDA-MB-231; 10000 nM
  normalised viability: 119%
MDA-MB-436 [11]; 10 nM
  normalised viability: 88.9%
MDA-MB-436 [11]; 1000 nM
  normalised viability: 106%
MDA-MB-436 [11]; 10000 nM
  normalised viability: 90.9%
MDA-MB-453; 3 nM
  normalised viability: 117%
MDA-MB-453; 30 nM
  normalised viability: 94.6%
MDA-MB-453; 100 nM
  normalised viability: 103%
MDA-MB-468 [12]; 10 nM
  normalised viability: 108%
MDA-MB-468 [12]; 1000 nM
  normalised viability: 102%
MDA-MB-468 [12]; 10000 nM
  normalised viability: 102%
MFM-223; 10 nM
  normalised viability: 90.3%
MFM-223; 1000 nM
  normalised viability: 96%
MFM-223; 10000 nM
  normalised viability: 87.9%

## OC[C@H]1O[C@@H](n2cnc3c2N=CNC[C@H]3O)C[C@@H]1O [Pentostatin]
BT-474 [7]; 10 nM
  normalised viability: 116%
BT-474 [7]; 1000 nM
  normalised viability: 119%
BT-474 [7]; 10000 nM
  normalised viability: 111%
BT-549; 10 nM
  normalised viability: 100%
BT-549; 1000 nM
  normalised viability: 98.1%
BT-549; 10000 nM
  normalised viability: 85.3%
CAL-148 [8]; 3 nM
  normalised viability: 116%
CAL-148 [8]; 30 nM
  normalised viability: 115%
CAL-148 [8]; 100 nM
  normalised viability: 110%
CAL-51; 3 nM
  normalised viability: 90.1%
CAL-51; 30 nM
  normalised viability: 85.4%
CAL-51; 100 nM
  normalised viability: 84.2%
CAL-85-1 [9]; 3 nM
  normalised viability: 106%
CAL-85-1 [9]; 30 nM
  normalised viability: 96.2%
CAL-85-1 [9]; 100 nM
  normalised viability: 104%
DU-4475 [10]; 3 nM
  normalised viability: 93.4%
DU-4475 [10]; 30 nM
  normalised viability: 92.7%
DU-4475 [10]; 100 nM
  normalised viability: 95%
HCC1143; 10 nM
  normalised viability: 114%
HCC1143; 1000 nM
  normalised viability: 103%
HCC1143; 10000 nM
  normalised viability: 102%
HCC1937; 10 nM
  normalised viability: 80.3%
HCC1937; 1000 nM
  normalised viability: 91.8%
HCC1937; 10000 nM
  normalised viability: 84.2%
HDQ-P1; 3 nM
  normalised viability: 118%
HDQ-P1; 30 nM
  normalised viability: 99%
HDQ-P1; 100 nM
  normalised viability: 100%
Hs578T; 10 nM
  normalised viability: 111%
Hs578T; 1000 nM
  normalised viability: 101%
Hs578T; 10000 nM
  normalised viability: 105%
MDA-MB-231; 10 nM
  normalised viability: 98.5%
MDA-MB-231; 1000 nM
  normalised viability: 102%
MDA-MB-231; 10000 nM
  normalised viability: 108%
MDA-MB-436 [11]; 10 nM
  normalised viability: 93.4%
MDA-MB-436 [11]; 1000 nM
  normalised viability: 88.4%
MDA-MB-436 [11]; 10000 nM
  normalised viability: 89.5%
MDA-MB-453; 3 nM
  normalised viability: 105%
MDA-MB-453; 30 nM
  normalised viability: 97.7%
MDA-MB-453; 100 nM
  normalised viability: 94.8%
MDA-MB-468 [12]; 10 nM
  normalised viability: 115%
MDA-MB-468 [12]; 1000 nM
  normalised viability: 99.4%
MDA-MB-468 [12]; 10000 nM
  normalised viability: 104%
MFM-223; 10 nM
  normalised viability: 93.5%
MFM-223; 1000 nM
  normalised viability: 93%
MFM-223; 10000 nM
  normalised viability: 98.1%
